Experimental data taken from patent publication US20090238808A1, “Process for the identification of novel enzyme interacting compounds” (priority 2005, published 2009).
One block for each compound: values may come before it.

Key:
Assay in all cases: Kinobeads elution with test compound, mouse brain lysate, MS
Assay type in all cases: binding
Conditions in all cases: kinase released from kinobeads by specific elution
NEK9 = molecular target: T1, NEK9 (Mus musculus, UniProt Q8K1R7)
T1 construct: from tissue; host or cells: mouse brain
In short: (§1)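 Read-out is mass-spectrometric identification of proteins released from kinobeads by non-modified test compound. Beads had captured mouse brain lysate proteins under near-physiological conditions; after washing, elution used 1.0 mM compound for 30 min at 4° C against a 2% DMSO or DMF control.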

AMPKa1 = AMPKa1 (Mus musculus, UniProt Q5EG47)
In short: as §1

LIMK1ps = test system: LIMK1ps
In short: as §1

PAK5 = molecular target: T2, PAK5 (Mus musculus, UniProt Q8C015)
T2 construct: from tissue; host or cells: mouse brain
In short: as §1

TBK1 = molecular target: T3, TBK1 (Mus musculus, UniProt Q9WUN2)
T3 construct: from tissue; host or cells: mouse brain
T3 sequence (Q9WUN2 whole entry): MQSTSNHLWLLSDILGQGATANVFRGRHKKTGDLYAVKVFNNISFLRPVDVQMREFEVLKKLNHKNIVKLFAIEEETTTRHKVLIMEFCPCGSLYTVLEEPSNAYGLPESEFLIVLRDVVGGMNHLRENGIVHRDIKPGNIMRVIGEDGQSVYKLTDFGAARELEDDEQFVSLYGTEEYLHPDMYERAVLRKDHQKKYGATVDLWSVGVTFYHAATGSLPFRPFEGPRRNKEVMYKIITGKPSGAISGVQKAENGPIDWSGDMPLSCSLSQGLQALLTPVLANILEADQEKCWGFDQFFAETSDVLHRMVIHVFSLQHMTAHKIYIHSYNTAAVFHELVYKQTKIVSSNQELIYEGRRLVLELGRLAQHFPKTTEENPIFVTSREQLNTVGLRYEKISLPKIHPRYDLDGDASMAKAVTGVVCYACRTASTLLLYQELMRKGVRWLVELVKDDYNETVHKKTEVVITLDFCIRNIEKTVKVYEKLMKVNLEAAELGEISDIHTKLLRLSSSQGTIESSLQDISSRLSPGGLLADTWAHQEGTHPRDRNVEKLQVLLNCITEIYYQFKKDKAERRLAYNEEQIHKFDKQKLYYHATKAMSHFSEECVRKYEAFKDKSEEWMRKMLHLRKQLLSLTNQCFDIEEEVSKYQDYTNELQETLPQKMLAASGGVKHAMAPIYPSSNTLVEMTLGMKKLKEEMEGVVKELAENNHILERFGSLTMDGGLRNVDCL
In short: as §1

PKCa = molecular target: T4, PKCa (Mus musculus, UniProt P20444)
T4 construct: from tissue; host or cells: mouse brain
In short: as §1

PKCg = molecular target: T5, PKCg (Mus musculus, UniProt P63318)
T5 construct: from tissue; host or cells: mouse brain
In short: as §1

LYN = molecular target: T6, LYN (Mus musculus, UniProt P25911)
T6 construct: from tissue; host or cells: mouse brain
T6 sequence (P25911 whole entry): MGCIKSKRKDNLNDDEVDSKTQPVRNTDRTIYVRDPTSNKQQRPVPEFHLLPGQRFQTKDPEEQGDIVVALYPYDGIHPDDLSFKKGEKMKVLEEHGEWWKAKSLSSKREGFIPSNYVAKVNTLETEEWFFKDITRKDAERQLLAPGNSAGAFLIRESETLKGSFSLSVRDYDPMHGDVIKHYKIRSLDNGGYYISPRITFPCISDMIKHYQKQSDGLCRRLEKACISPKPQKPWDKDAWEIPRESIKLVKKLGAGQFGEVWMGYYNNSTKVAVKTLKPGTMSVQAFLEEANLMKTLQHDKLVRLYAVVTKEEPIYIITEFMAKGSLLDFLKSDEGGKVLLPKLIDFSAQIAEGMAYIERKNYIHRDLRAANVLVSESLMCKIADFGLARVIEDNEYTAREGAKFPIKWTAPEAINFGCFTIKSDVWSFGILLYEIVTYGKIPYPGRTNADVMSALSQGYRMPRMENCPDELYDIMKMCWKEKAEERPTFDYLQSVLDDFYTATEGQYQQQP
In short: as §1

ALK2 = ALK2 (Mus musculus, UniProt P37172)
Chain of ALK2 (P37172 21-509): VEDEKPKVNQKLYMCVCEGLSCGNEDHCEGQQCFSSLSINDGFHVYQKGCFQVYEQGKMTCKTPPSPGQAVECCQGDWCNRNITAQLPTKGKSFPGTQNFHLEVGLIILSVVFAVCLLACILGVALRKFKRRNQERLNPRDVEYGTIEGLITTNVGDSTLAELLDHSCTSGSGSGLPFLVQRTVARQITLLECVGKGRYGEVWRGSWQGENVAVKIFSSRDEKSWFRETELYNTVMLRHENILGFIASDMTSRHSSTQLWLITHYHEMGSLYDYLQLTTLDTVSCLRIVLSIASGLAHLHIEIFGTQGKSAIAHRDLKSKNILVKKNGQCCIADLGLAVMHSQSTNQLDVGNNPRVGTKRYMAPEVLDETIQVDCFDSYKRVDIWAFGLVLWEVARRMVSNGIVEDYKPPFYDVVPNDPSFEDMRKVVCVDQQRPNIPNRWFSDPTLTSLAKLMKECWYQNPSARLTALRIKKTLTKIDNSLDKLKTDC
In short: as §1

QSK = molecular target: T7, QSK (Mus musculus, UniProt Q6P4S6)
T7 construct: from tissue; host or cells: mouse brain
T7 sequence (Q6P4S6 whole entry): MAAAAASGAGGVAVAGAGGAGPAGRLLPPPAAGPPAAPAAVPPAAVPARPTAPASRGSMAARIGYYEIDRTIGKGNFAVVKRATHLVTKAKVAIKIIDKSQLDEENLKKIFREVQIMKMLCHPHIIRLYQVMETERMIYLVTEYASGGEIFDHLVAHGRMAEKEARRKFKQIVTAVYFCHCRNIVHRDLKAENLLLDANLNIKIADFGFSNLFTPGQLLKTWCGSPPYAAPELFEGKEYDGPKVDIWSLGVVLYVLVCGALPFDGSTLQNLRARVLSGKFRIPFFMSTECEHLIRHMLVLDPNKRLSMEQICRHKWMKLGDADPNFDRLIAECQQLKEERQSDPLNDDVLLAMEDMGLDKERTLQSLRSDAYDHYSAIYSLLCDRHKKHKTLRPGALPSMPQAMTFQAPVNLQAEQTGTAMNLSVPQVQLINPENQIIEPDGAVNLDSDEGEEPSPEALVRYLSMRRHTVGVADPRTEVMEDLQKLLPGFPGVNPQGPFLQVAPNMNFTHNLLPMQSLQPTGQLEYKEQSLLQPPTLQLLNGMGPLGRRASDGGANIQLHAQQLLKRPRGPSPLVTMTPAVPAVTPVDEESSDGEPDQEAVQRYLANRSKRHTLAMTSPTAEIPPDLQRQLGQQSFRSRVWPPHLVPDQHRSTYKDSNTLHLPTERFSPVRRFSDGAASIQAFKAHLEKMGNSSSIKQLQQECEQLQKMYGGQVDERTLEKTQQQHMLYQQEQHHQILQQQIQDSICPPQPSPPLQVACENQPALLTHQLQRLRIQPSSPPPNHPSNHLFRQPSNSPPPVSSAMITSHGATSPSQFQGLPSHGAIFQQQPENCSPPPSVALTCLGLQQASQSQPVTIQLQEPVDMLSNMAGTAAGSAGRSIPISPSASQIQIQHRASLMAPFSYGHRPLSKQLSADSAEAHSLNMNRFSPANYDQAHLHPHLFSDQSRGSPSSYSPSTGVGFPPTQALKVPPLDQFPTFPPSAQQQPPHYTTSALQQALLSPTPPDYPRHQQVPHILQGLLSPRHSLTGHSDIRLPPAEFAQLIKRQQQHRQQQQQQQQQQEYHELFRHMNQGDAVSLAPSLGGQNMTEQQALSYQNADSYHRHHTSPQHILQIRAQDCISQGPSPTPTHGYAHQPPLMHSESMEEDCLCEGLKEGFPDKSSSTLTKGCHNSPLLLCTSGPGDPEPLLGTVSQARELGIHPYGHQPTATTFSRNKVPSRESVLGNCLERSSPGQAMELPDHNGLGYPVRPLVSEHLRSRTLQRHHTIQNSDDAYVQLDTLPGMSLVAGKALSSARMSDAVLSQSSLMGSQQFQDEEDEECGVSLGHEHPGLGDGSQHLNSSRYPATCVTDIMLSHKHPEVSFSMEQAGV
In short: as §1

BRAFps = test system: BRAFps
In short: as §1

mass spectrometry score, NEK9 (NEK9): 61
number of identified peptides, NEK9 (NEK9): 2
mass spectrometry score, AMPKa1 (AMPKa1): 64
number of identified peptides, AMPKa1 (AMPKa1): 2
SMILES: NCc1ccc(Nc2ncc(F)c(Nc3ccccc3)n2)cc1 [CZC00008004]
mass spectrometry score, LIMK1ps (LIMK1ps): 186
number of identified peptides, LIMK1ps (LIMK1ps): 4

SMILES: CNC1CC2OC(C)(C1OC)n1c3ccccc3c3c4c(c5c6ccccc6n2c5c31)C(=O)NC4 (stereo not shown) [CZC9280]
mass spectrometry score, PAK5 (PAK5): 64
number of identified peptides, PAK5 (PAK5): 1
mass spectrometry score, TBK1 (TBK1): 48
number of identified peptides, TBK1 (TBK1): 1
mass spectrometry score, PKCa (PKCa): 64
number of identified peptides, PKCa (PKCa): 1
mass spectrometry score, PKCg (PKCg): 53
number of identified peptides, PKCg (PKCg): 1

mass spectrometry score, LYN (LYN): 134
number of identified peptides, LYN (LYN): 6
mass spectrometry score, ALK2 (ALK2): 65
number of identified peptides, ALK2 (ALK2): 2
mass spectrometry score, QSK (QSK): 153
number of identified peptides, QSK (QSK): 7
SMILES: CCCCCCCCCCCCOS(=O)(=O)[O-].[Na+] [SDS]

SMILES: Cn1c(=O)c(-c2c(Cl)cccc2Cl)cc2cnc(Nc3ccc(CN)cc3)cc21 [CZC7324]
mass spectrometry score, BRAFps (BRAFps): 70
number of identified peptides, BRAFps (BRAFps): 4
